Test results published in the supplement of paper PMC9938120.

Key:
Experiment in all cases: drug sensitivity score (DSS3, normalised partial AUC of % inhibition dose-response) (DSS (score)); higher = more sensitive (stronger inhibition of viability); extreme values may be limits of the assay
FMOC25_1 = patient-derived low-grade serous ovarian cancer cells; settings: 72 h; library: FO4B; assay format: 2D, 384-well, CellTiter-Glo
Summary of the method: (§1)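 The drug sensitivity score is calculated as a partial area under the percent-inhibition dose-response curve, divided by the log of the upper asymptote; higher scores mean more sensitive. For this score, early-passage (under 10) patient-derived ovarian cancer cells were exposed on 384-well flat clear-bottom plates to compounds at five concentrations across a 10,000-fold range for 72 h at 37 °C, 5% CO2. Viability was read with CellTiter-Glo and processed in Breeze.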

FMOC03 = patient-derived mucinous ovarian cancer cells; settings: 72 h; library: FO5A; assay format: 2D, 384-well, CellTiter-Glo
Summary of the method: as §1

FMOC09 = patient-derived high-grade serous ovarian cancer cells; settings: 72 h; library: FO5A; assay format: 2D, 384-well, CellTiter-Glo
Summary of the method: as §1

FMOC14 = patient-derived high-grade serous ovarian cancer cells; settings: 72 h; library: FO5A; assay format: 2D, 384-well, CellTiter-Glo
Summary of the method: as §1

FMOC25_2 = patient-derived low-grade serous ovarian cancer cells; settings: 72 h; library: FO5A; assay format: 2D, 384-well, CellTiter-Glo
Summary of the method: as §1

FMOC02_3 = patient-derived low-grade serous ovarian cancer cells; settings: 72 h; library: FO5A; assay format: 2D, 384-well, CellTiter-Glo
Summary of the method: as §1

FMOC24 = patient-derived high-grade serous ovarian cancer cells; settings: 72 h; library: FO5A; assay format: 2D, 384-well, CellTiter-Glo
Summary of the method: as §1

FMOC22 = patient-derived mucinous ovarian cancer cells; settings: 72 h; library: FO5A; assay format: 2D, 384-well, CellTiter-Glo
Summary of the method: as §1

FMOC06 = patient-derived mucinous ovarian cancer cells; settings: 72 h; library: FO5A; assay format: 2D, 384-well, CellTiter-Glo
Summary of the method: as §1

FMOC02_2 = patient-derived low-grade serous ovarian cancer cells; settings: 72 h; library: FO5A; assay format: 2D, 384-well, CellTiter-Glo
Summary of the method: as §1

CC(=O)NCC(=O)N1[C@@H]2CC[C@H]1c1ccc(Nc3ncc(C(F)(F)F)c(NC4CCC4)n3)cc12
drug sensitivity score (FMOC25_1): 9.1

CC(C)CC(=O)Nc1n[nH]c2c1CN(C(=O)C1CCN(C)CC1)C2(C)C
drug sensitivity score (FMOC25_1): 5.5

CCNC(=O)C[C@@H]1N=C(c2ccc(Cl)cc2)c2cc(OC)ccc2-n2c(C)nnc21
drug sensitivity score (FMOC25_1): 3.8

CCc1cc(Nc2nccc(-c3c(-c4ccc(OC)c(C(=O)Nc5c(F)cccc5F)c4)nc4ccccn34)n2)c(OC)cc1N1CCC(N2CCN(S(C)(=O)=O)CC2)CC1
drug sensitivity score (FMOC25_1): 3.9

CN(c1ccccc1CNc1nc(Nc2ccc3c(c2)CC(=O)N3)ncc1C(F)(F)F)S(C)(=O)=O
drug sensitivity score (FMOC25_1): 7

CN1CCC(COc2cnc(-c3cccc(Cn4nc(-c5cccc(C#N)c5)ccc4=O)c3)nc2)CC1
drug sensitivity score (FMOC25_1): 0

COCC(=O)NC/C=C/c1ccc2ncnc(Nc3ccc(Oc4ccc(C)nc4)c(C)c3)c2c1
drug sensitivity score (FMOC25_1): 3.2

COc1ccc(-c2cc3c(C)nc(N)nc3n([C@H]3CC[C@H](OCCO)CC3)c2=O)cn1
drug sensitivity score (FMOC25_1): 23.8

CS(=O)(=O)N1CCc2c(-c3cnc(N)nc3)nc(N3CCOCC3)nc21
drug sensitivity score (FMOC25_1): 10.5

Cc1c(NC(=O)OC[C@@H]2COCCN2)cn2ncnc(Nc3ccc4c(cnn4Cc4cccc(F)c4)c3)c12
drug sensitivity score (FMOC25_1): 9.1

Cc1ccc2nc(CN(CCN(Cc3nc4ccc(C)cc4[nH]3)Cc3nc4ccc(C)cc4[nH]3)Cc3nc4ccc(C)cc4[nH]3)[nH]c2c1
drug sensitivity score (FMOC25_1): 3.9

Cn1cc(-c2ccc3nnc(C(F)(F)c4ccc5ncccc5c4)n3n2)cn1
drug sensitivity score (FMOC25_1): 0

O=C(NOCC1CC1)c1ccc(F)c(F)c1Nc1ccc(I)cc1Cl
drug sensitivity score (FMOC25_1): 7.5

O=C1NC(=O)/C(=C/c2ccc3nccc(-c4ccncc4)c3c2)S1
drug sensitivity score (FMOC25_1): 9.8

O=c1cc(N2CCOCC2)oc2c(-c3ccccc3)cccc12
drug sensitivity score (FMOC25_1): 9.1

OCCn1cc(-c2cnc3nnn(Cc4ccc5ncccc5c4)c3n2)cn1
drug sensitivity score (FMOC25_1): 0

Oc1c2ccccc2c2c3c(cccc13)N=N2
drug sensitivity score (FMOC25_1): 4.3

COc1cc2c(cc1O)CC[C@@H]1[C@@H]2CC[C@]2(C)[C@@H](O)CC[C@@H]12 [2-methoxyestradiol]
drug sensitivity score (FMOC25_1): 4.1

CCCCC/C=C/C=C1/C(=O)C=C[C@@H]1C/C=C\CCCC(=O)O [15D-PGJ2]
drug sensitivity score (FMOC25_1): 0

COc1cc(O)c2c(c1)/C=C/C[C@H](O)[C@H](O)C(=O)/C=C\C[C@H](C)OC2=O [(5Z)-7-Oxozeaenol]
drug sensitivity score (FMOC25_1): 0

Cc1ccccc1C(C(=O)NC1CCCCC1)N(C(=O)Cn1ccnc1C)c1cccc(F)c1 (stereo not given) [AGI-5198]
drug sensitivity score (FMOC25_1): 0

O=C(Nc1cccc(C(F)(F)F)c1)Nc1cc(S(=O)(=O)NC2CC2)ccc1-c1ccsc1 [AGI-6780]
drug sensitivity score (FMOC25_1): 0.4

COc1ccc2c(OCc3nnc4ccc(-c5ccccc5)nn34)ccnc2c1 [AMG-208]
drug sensitivity score (FMOC25_1): 1.3

Cc1csc(-c2nnc(Nc3ccc(Oc4ncccc4-c4ccnc(N)n4)cc3)c3ccccc23)c1 [AMG-900]
drug sensitivity score (FMOC25_1): 0.8

CNC(=O)c1ccc(N2C(=S)N(c3cnc(C#N)c(C(F)(F)F)c3)C(=O)C23CCC3)cc1F [ARN 509]
drug sensitivity score (FMOC25_1): 0

CC(C)Oc1cc(Nc2nc(N[C@@H](C)c3ccc(F)cn3)ncc2Cl)n[nH]1 [AZ-23]
drug sensitivity score (FMOC25_1): 0

CNC(=O)c1cccc(-c2ccc3c(N4CCOC[C@@H]4C)nc(N4CCOC[C@@H]4C)nc3n2)c1 [AZD2014]
drug sensitivity score (FMOC25_1): 20.5

Cc1cc(C(=O)NOCCO)c(Nc2ccc(I)cc2F)n(C)c1=O [AZD-8330]
drug sensitivity score (FMOC25_1): 22.2

CN(C)c1nc(N(C)C)nc(N(C)C)n1 [Altretamine]
drug sensitivity score (FMOC25_1): 0

CO[C@H]1/C=C\C=C(/C)C(=O)NC2=CC(=O)C(NCCN(C)C)=C(C[C@@H](C)C[C@H](OC)[C@H](O)[C@@H](C)/C=C(\C)[C@@H]1OC(N)=O)C2=O [Alvespimycin]
drug sensitivity score (FMOC25_1): 4.1

CN(C)CCN1C(=O)c2cccc3cc(N)cc(c23)C1=O [Amonafide]
drug sensitivity score (FMOC25_1): 6.8

Cc1c(CN2CCN(C(=O)[C@H](C)O)CC2)sc2c(N3CCOCC3)nc(-c3cnc(N)nc3)nc12 [Apitolisib]
drug sensitivity score (FMOC25_1): 18.1

Cn1c(CCCC(=O)O)nc2cc(N(CCCl)CCCl)ccc21 [Bendamustine]
drug sensitivity score (FMOC25_1): 0

CS(=O)(=O)OCCCCOS(C)(=O)=O [Busulfan]
drug sensitivity score (FMOC25_1): 0

C#Cc1cccc(Nc2ncnc3cc(OC)c(OCCCCCCC(=O)NO)cc23)c1 [CUDC-101]
drug sensitivity score (FMOC25_1): 17

Cc1nc(N)sc1-c1ccnc(Nc2ccc(N3CCOCC3)cc2)n1 [CYC-116]
drug sensitivity score (FMOC25_1): 6.4

CC[C@@]1(O)C(=O)OCc2c1cc1n(c2=O)Cc2cc3ccccc3nc2-1 [Camptothecin]
drug sensitivity score (FMOC25_1): 17

O=NN(CCCl)C(=O)NCCCl [Carmustine]
drug sensitivity score (FMOC25_1): 0.4

O=C(O)CCCc1ccc(N(CCCl)CCCl)cc1 [Chlorambucil]
drug sensitivity score (FMOC25_1): 0

O=P1(N(CCCl)CCCl)NCCCO1 (stereo not given) [Cyclophosphamide]
drug sensitivity score (FMOC25_1): 0

CN(C)/N=N/c1[nH]cnc1C(N)=O [Dacarbazine]
drug sensitivity score (FMOC25_1): 0

CCN(CC)C(=S)SSC(=S)N(CC)CC [Disulfiram]
drug sensitivity score (FMOC25_1): 3.7

C[C@]12CC[C@@H]3c4ccc(OC(=O)N(CCCl)CCCl)cc4CC[C@H]3[C@@H]1CC[C@@H]2O [Estramustine]
drug sensitivity score (FMOC25_1): 0

Cc1nc(C(=O)NCC(=O)O)c(O)c2ccc(Oc3ccccc3)cc12 [FG-4592]
drug sensitivity score (FMOC25_1): 0

O=S(=O)(c1cccc2cnccc12)N1CCCNCC1 [Fasudil]
drug sensitivity score (FMOC25_1): 0

Cn1nccc1Nc1nccc(-c2ccn([C@H](CO)c3ccc(Cl)c(F)c3)c(=O)c2)n1 [GDC-0994]
drug sensitivity score (FMOC25_1): 6

O=P1(NCCCl)OCCCN1CCCl (stereo not given) [Ifosfamide]
drug sensitivity score (FMOC25_1): 0

NC(=O)c1ccc(I)c([N+](=O)[O-])c1 [Iniparib]
drug sensitivity score (FMOC25_1): 0

CCc1c2c(nc3ccc(OC(=O)N4CCC(N5CCCCC5)CC4)cc13)-c1cc3c(c(=O)n1C2)COC(=O)[C@]3(O)CC [Irinotecan]
drug sensitivity score (FMOC25_1): 5.1

CCCNC(=O)Nc1ccc(Oc2ncnc3cc(OC)c(OC)cc23)cc1Cl [KRN-633]
drug sensitivity score (FMOC25_1): 0

O=C(c1ccc(/C=C/c2n[nH]c3ccccc23)cc1)N1CCNCC1 [KW-2449]
drug sensitivity score (FMOC25_1): 0

O=C(Cc1ccc(-c2ccc(OCCN3CCOCC3)cc2)cn1)NCc1ccccc1 [KX2-391]
drug sensitivity score (FMOC25_1): 12.7

CN[C@@H](C)C(=O)N[C@H](C(=O)N1CCC[C@H]1c1nc(C(=O)c2ccc(F)cc2)cs1)C1CCCCC1 [LCL161]
drug sensitivity score (FMOC25_1): 7.7

CC[C@@H](C(=O)[C@@H](C)[C@@H](O)[C@H](C)[C@@H]1O[C@@H]([C@@H](CC)C(=O)O)CC[C@@H]1C)[C@H]1O[C@]2(C=C[C@@H](O)[C@]3(CC[C@@](C)([C@H]4CC[C@](O)(CC)[C@H](C)O4)O3)O2)[C@H](C)C[C@@H]1C [Salinomycin]
drug sensitivity score (FMOC03): 12.5
drug sensitivity score (FMOC09): 16.4
drug sensitivity score (FMOC14): 23.3
drug sensitivity score (FMOC25_2): 16.5
drug sensitivity score (FMOC02_3): 1.1
drug sensitivity score (FMOC24): 26.1
drug sensitivity score (FMOC22): 10.6
drug sensitivity score (FMOC06): 16.6
drug sensitivity score (FMOC02_2): 15.4

CC(C)n1nc(-c2ccc3oc(N)nc3c2)c2c(N)ncnc21 [Sapanisertib]
drug sensitivity score (FMOC03): 13.7
drug sensitivity score (FMOC09): 8.7
drug sensitivity score (FMOC14): 9.5
drug sensitivity score (FMOC25_2): 18.1
drug sensitivity score (FMOC02_3): 20.3
drug sensitivity score (FMOC24): 7.7
drug sensitivity score (FMOC22): 11.7
drug sensitivity score (FMOC06): 12.9
drug sensitivity score (FMOC02_2): 18.5

Nc1nc2cc(-c3ccc4ncc(C(=O)N5CCOCC5)n4c3)ccc2o1 [Serabelisib]
drug sensitivity score (FMOC03): 3
drug sensitivity score (FMOC09): 1.3
drug sensitivity score (FMOC14): 0.1
drug sensitivity score (FMOC25_2): 6.7
drug sensitivity score (FMOC02_3): 7.2
drug sensitivity score (FMOC24): 0
drug sensitivity score (FMOC22): 2.1
drug sensitivity score (FMOC06): 3.5
drug sensitivity score (FMOC02_2): 6.6

COc1cc2c(Nc3ccc(Cl)c(Cl)c3F)ncnc2cc1OC[C@@H]1C[C@@H]2CN(C)C[C@@H]2C1 [Tesevatinib]
drug sensitivity score (FMOC03): 18.9
drug sensitivity score (FMOC09): 16.3
drug sensitivity score (FMOC14): 6.5
drug sensitivity score (FMOC25_2): 18.5
drug sensitivity score (FMOC02_3): 21
drug sensitivity score (FMOC24): 2.4
drug sensitivity score (FMOC22): 2
drug sensitivity score (FMOC06): 4.4
drug sensitivity score (FMOC02_2): 20.6

Nc1cc(F)ccc1NC(=O)c1ccc(CNC(=O)/C=C/c2cccnc2)cc1 [Tucidinostat]
drug sensitivity score (FMOC03): 7.7
drug sensitivity score (FMOC09): 0.8
drug sensitivity score (FMOC14): 7.4
drug sensitivity score (FMOC25_2): 4.3
drug sensitivity score (FMOC02_3): 5.5
drug sensitivity score (FMOC24): 9
drug sensitivity score (FMOC22): 4.4
drug sensitivity score (FMOC06): 8.1
drug sensitivity score (FMOC02_2): 6.2

C=CC(=O)N1CC/C(=C\c2ccc(F)c([N+](=O)[O-])c2)C(=O)/C(=C/c2ccc(F)c([N+](=O)[O-])c2)C1 [VLX1570]
drug sensitivity score (FMOC03): 15.2
drug sensitivity score (FMOC09): 23
drug sensitivity score (FMOC14): 14.8
drug sensitivity score (FMOC25_2): 14.7
drug sensitivity score (FMOC02_3): 25
drug sensitivity score (FMOC24): 15.4
drug sensitivity score (FMOC22): 10.7
drug sensitivity score (FMOC06): 18.2
drug sensitivity score (FMOC02_2): 22.3

CNC(=O)c1cccc(-c2ccc3c(N4CCOC[C@@H]4C)nc(N4CCOC[C@@H]4C)nc3n2)c1 [Vistusertib]
drug sensitivity score (FMOC03): 13.1
drug sensitivity score (FMOC09): 8.9
drug sensitivity score (FMOC14): 12.6
drug sensitivity score (FMOC25_2): 18.2
drug sensitivity score (FMOC02_3): 21.6
drug sensitivity score (FMOC24): 8.35
drug sensitivity score (FMOC22): 9.7
drug sensitivity score (FMOC06): 14.8
drug sensitivity score (FMOC02_2): 20.9

Cc1sc2c(c1C)C(c1ccc(Cl)cc1)=N[C@@H](CC(=O)NCCCCNC(=O)COc1cccc3c1C(=O)N(C1CCC(=O)NC1=O)C3=O)c1nnc(C)n1-2 (stereo not given in full) [dBET1]
drug sensitivity score (FMOC03): 4.5
drug sensitivity score (FMOC09): 4.5
drug sensitivity score (FMOC14): 8.9
drug sensitivity score (FMOC25_2): 0.3
drug sensitivity score (FMOC02_3): 8.6
drug sensitivity score (FMOC24): 0.2
drug sensitivity score (FMOC22): 3.8
drug sensitivity score (FMOC06): 12.9
drug sensitivity score (FMOC02_2): 8.8
